# Results taken from US7939541B2, “Intermediates and a process employing the intermediates for the preparation of (3-trifluoromethylsulfonyl)-N-[4-methyl-3-(4-pyridin-3yl-pyrimidin-2ylamino)-phenyl]-benzamide” (Natco Pharma Limited, priority 2004, dated 2011).
# Assays:
# [1] = system: Baf3 murine leukemia cells E255K; test: Blast cell count in nude mice implanted with Baf3 E255K cells; type: in vivo; conditions: Baf3E255K (printed E225K); Imatinib 10 mg/kg, AN019 20 mg/kg, AN024 20 mg/kg, oral gavage or ip from day 15; day 42
# Description: Blood smears were obtained via the tail vein or via the femoral vein every 6th day and blast cells counted and graphically represented.
# Abdominal swelling and decrease in activity was monitored daily, blood smear taken via the tail vein or the femoral vein every 6th day and H&E stained as per standard protocols. 42 days after implantation, mice were sacrificed and spleens harvested.
# Blood from tail vein or the femoral vein was taken every 6th day from Baf3 cell implanted mice until day 42.
# Nude mice were intraperitoneally implanted with Baf3 mutant cells (wt, T315I, M351T or E255K). […] Blood was drawn from the femoral vein or tail vein every 6th day and blast cell count determined and graphically represented.
# K562luc cells = test: Determination of drug temporal penetrance (Tp); type: in vivo, nude mice; conditions: daily ip from day 15 to day 35, imaged till day 45; AN019 20 mg/kg, AN024 20 mg/kg, Imatinib 10 mg/kg
# Description: The temporal penetrance was calculated applying the following equation, […].
# P=photon counts at day ‘a’, day ‘ter’, or day ‘b’ where ‘a’ is the day when drug treatment was stopped and ‘ter’ is the day when the experiment was terminated and ‘b’ is the day where P is minimum after day a but before day ‘ter’.
# n=number of animals alive when P was measured.
# The animals were imaged at 6 day intervals post transplantation. […] Drug treatment was stopped on day 35 and animals were imaged till day 45, and calculated as described in methods.
# ZR71 breast cancer cells = test: In vitro angiogenic assay, ZR-71 conditioned media on human dermal endothelial cells; type: cell-based; conditions: ZR-71 cells, radiation status not specified
# Description: (§1) The in vitro angiogenesis of 4910, 5310 and U87 glioma cells and MDAMB231 and ZR71 breast cancer cells in the presence of specified concentrations of compounds were determined as follows, cells (2×10^4/well) were seeded in 8-well chamber slides and were treated with various concentrations of test compounds. After a 24 h incubation period, the conditioned media was removed and added to a 4×10^4 human dermal endothelial cell (monolayer in 8-well chamber slides) and the human dermal endothelial cells were allowed to grow for 72 h. Cells were then fixed in 3.7% formaldehyde and stained with H&E and photographed.
# 5310 glioma cells = test: In vitro angiogenic assay, 5310 conditioned media on human dermal endothelial cells; type: cell-based; conditions: 5310 cells
# Description: as §1
# [2] = system: AKT, ERK and Pi3k in U87 glioma cells; test: Western blot analysis, U87; type: cell-based; conditions: 24 h
# Description: Western blot analysis of 4910, 5310 and U87 glioma cells and MDAMB231 and ZR71 breast cancer cells in the presence of specified concentrations of compounds were assessed as per standard protocols. Cells were treated with AN019, AN024 or Temozolomide at the specified concentrations. 24 h after treatment, cells were collected and cell lysates extracted. Equal quantities of proteins were fractionated by SDS-PAGE. The fractionated proteins were blotted on to nylon membranes and immunoprobed for AKT, ERK and Pi3k. Breast cancer cell protein isolates were additionally immunoprobed for EGFR, ErbB1, ErbB2 and ErbB3.
smiles,measurement,setting,value
"Cc1ccc(NC(=O)c2cccc(S(=O)(=O)C(F)(F)F)c2)cc1Nc1nccc(-c2cccnc2)n1 [AN024, (3-trifluoromethylsulfonyl)-N-[4-methyl-3-(4-pyridin-3yl-pyrimidin-2ylamino)-phenyl]-benzamide]",blast cell count in blood smears,[1],significant decrease in blast cell count
same,temporal penetrance (Tp),K562luc cells,2.4
same,inhibition of angiogenesis,ZR71 breast cancer cells,complete inhibition of angiogenesis
same,inhibition of angiogenesis,5310 glioma cells; after radiation treatment,angiogenesis further inhibited
same,inhibition of angiogenesis,5310 glioma cells; control conditions (without radiation),inhibition of angiogenesis was seen
same,ERK levels,"[2]; U87, after radiation",decrease was enhanced after radiation
same,ERK levels,"[2]; U87, without radiation",slight decrease in ERK levels
